In ChEMBL document CHEMBL1926664, “Synthesis and antiproliferative evaluation of 6-aryl-11-iminoindeno[1,2-c]quinoline derivatives” (2011):
Calls of active or inactive are those of the source. The calls are words filed in the database; no cut-off is given here.

Legend:
[1] = tested on: HepG2; assay: Cell cycle arrest in human HepG2 cells assessed as accumulation at G2/M phase at 1 uM after 12 hrs using propidium iodide staining by flow cytometry (reference value: 18.7 %); type: functional
[2] = Cell cycle arrest in human Hep3B cells assessed as accumulation at S phase at 1 uM after 12 hrs using propidium iodide staining by flow cytometry (reference value: 12.2%); type: functional, cell-based; conditions: Hep 3B2
[3] = tested on: HepG2; assay: Cell cycle arrest in human HepG2 cells assessed as accumulation at S phase at 5 uM after 12 hrs using propidium iodide staining by flow cytometry (reference value: 13.8%); type: functional
[4] = tested on: HepG2; assay: Cell cycle arrest in human HepG2 cells assessed as accumulation at S phase at 10 uM after 12 hrs using propidium iodide staining by flow cytometry (reference value: 13.8%); type: functional
[5] = tested on: HepG2; assay: Cell cycle arrest in human HepG2 cells assessed as accumulation at G2/M phase at 10 uM after 12 hrs using propidium iodide staining by flow cytometry (reference value: 18.7 %); type: functional
[6] = tested on: HepG2; assay: Induction of apoptosis in human HepG2 cells assessed as increase in caspase-8 level at 1 to 10 uM after 12 hrs by chemiluminescence blotting method; type: functional, cell-based
[7] = Cell cycle arrest in human Hep3B cells assessed as accumulation at sub-G1 phase at 5 uM after 12 hrs using propidium iodide staining by flow cytometry (reference value: 2.1%); type: functional, cell-based; conditions: Hep 3B2
[8] = Cell cycle arrest in human Hep3B cells assessed as accumulation at G1 phase at 1 uM after 12 hrs using propidium iodide staining by flow cytometry (reference value: 71.6%); type: functional, cell-based; conditions: Hep 3B2
[9] = tested on: HepG2; assay: Induction of apoptosis in human HepG2 cells assessed as cell shrinking at 5 uM after 12 hrs by light microscopic method; type: functional, cell-based
[10] = tested on: HepG2; assay: Cell cycle arrest in human HepG2 cells assessed as accumulation at S phase at 1 uM after 12 hrs using propidium iodide staining by flow cytometry (reference value: 13.8%); type: functional
[11] = tested on: HepG2; assay: Induction of apoptosis in human HepG2 cells assessed as Bcl-2 level at 1 to 10 uM after 12 hrs by chemiluminescence blotting method; type: functional, cell-based
[12] = tested on: HepG2; assay: Cell cycle arrest in human HepG2 cells assessed as accumulation at sub-G1 phase at 5 uM after 12 hrs using propidium iodide staining by flow cytometry (reference value: 3.6%); type: functional
[13] = Cell cycle arrest in human Hep3B cells assessed as accumulation at G1 phase at 5 uM after 12 hrs using propidium iodide staining by flow cytometry (reference value: 71.6%); type: functional, cell-based; conditions: Hep 3B2
[14] = tested on: HepG2; assay: Growth inhibition of human HepG2 cells at 0.1 to 5 uM by XTT assay; type: functional, cell-based; conditions: TDE = time-dependent effect
[15] = Cell cycle arrest in human Hep3B cells assessed as accumulation at S phase at 5 uM after 12 hrs using propidium iodide staining by flow cytometry (reference value: 12.2%); type: functional, cell-based; conditions: Hep 3B2
[16] = tested on: HepG2; assay: Growth inhibition of human HepG2 cells after 72 hrs by XTT assay; type: functional; conditions: HepG2, 72 h
[17] = tested on: HepG2; assay: Cell cycle arrest in human HepG2 cells assessed as accumulation at G1 phase at 10 uM after 12 hrs using propidium iodide staining by flow cytometry (reference value: 67.5%); type: functional
[18] = tested on: HepG2; assay: Cell cycle arrest in human HepG2 cells assessed as accumulation at G2/M phase at 5 uM after 12 hrs using propidium iodide staining by flow cytometry (reference value: 18.7 %); type: functional
[19] = tested on: HepG2; assay: Cell cycle arrest in human HepG2 cells assessed as accumulation at G1 phase at 1 uM after 12 hrs using propidium iodide staining by flow cytometry (reference value: 67.5%); type: functional
[20] = Cell cycle arrest in human Hep3B cells assessed as accumulation at sub-G1 phase at 10 uM after 12 hrs using propidium iodide staining by flow cytometry (reference value: 2.1%); type: functional, cell-based; conditions: Hep 3B2
[21] = Cell cycle arrest in human Hep3B cells assessed as accumulation at sub-G1 phase at 1 uM after 12 hrs using propidium iodide staining by flow cytometry (reference value: 2.1%); type: functional, cell-based; conditions: Hep 3B2
[22] = tested on: Hep 3B2; assay: Growth inhibition of human Hep3B cells assessed as assessed as suppression of cell viability at 5 uM after 12 hrs by XTT assay; type: functional, cell-based
[23] = Cell cycle arrest in human Hep3B cells assessed as accumulation at G2/M phase at 10 uM after 12 hrs using propidium iodide staining by flow cytometry (reference value: 16.2 %); type: functional, cell-based; conditions: Hep 3B2
[24] = tested on: MCF7; assay: Growth inhibition of human MCF7 cells after 72 hrs by XTT assay; type: functional; conditions: MCF7, 72 h
[25] = tested on: HepG2; assay: Induction of apoptosis in human HepG2 cells assessed as increase in expression of p53 protein at 1 to 10 uM after 12 hrs by chemiluminescence blotting method; type: functional, cell-based
[26] = tested on: HepG2; assay: Growth inhibition of human HepG2 cells assessed as suppression of cell viability at 5 uM after 12 hrs by XTT assay; type: functional, cell-based
[27] = tested on: HepG2; assay: Cell cycle arrest in human HepG2 cells assessed as accumulation at sub-G1 phase at 1 uM after 12 hrs using propidium iodide staining by flow cytometry (reference value: 3.6%); type: functional
[28] = tested on: Hep 3B2; assay: Growth inhibition of human Hep3B cells after 12 to 72 hrs by XTT assay; type: functional, cell-based
[29] = tested on: Hep 3B2; assay: Growth inhibition of human Hep3B cells at 0.1 to 5 uM by XTT assay; type: functional, cell-based; conditions: TDE = time-dependent effect
[30] = Cell cycle arrest in human Hep3B cells assessed as accumulation at G1 phase at 10 uM after 12 hrs using propidium iodide staining by flow cytometry (reference value: 71.6%); type: functional, cell-based; conditions: Hep 3B2
[31] = Cell cycle arrest in human Hep3B cells assessed as accumulation at G2/M phase at 5 uM after 12 hrs using propidium iodide staining by flow cytometry (reference value: 16.2 %); type: functional, cell-based; conditions: Hep 3B2
[32] = Growth inhibition of human H1299 cells after 72 hrs by XTT assay; type: functional; conditions: NCI-H1299, 72 h
[33] = tested on: MDA-MB-231; assay: Growth inhibition of human MDA-MB-231 cells after 72 hrs by XTT assay; type: functional; conditions: MDA-MB-231, 72 h
[34] = tested on: Hep 3B2; assay: Induction of apoptosis in human Hep3B cells assessed as cell shrinking at 5 uM after 12 hrs by light microscopic method; type: functional, cell-based
[35] = tested on: HepG2; assay: Growth inhibition of human HepG2 cells after 12 to 72 hrs by XTT assay; type: functional, cell-based
[36] = Growth inhibition of human Hep3B cells after 72 hrs by XTT assay; type: functional, Hep 3B2
[37] = Cell cycle arrest in human Hep3B cells assessed as accumulation at G2/M phase at 1 uM after 12 hrs using propidium iodide staining by flow cytometry (reference value: 16.2 %); type: functional, cell-based; conditions: Hep 3B2
[38] = tested on: HepG2; assay: Induction of apoptosis in human HepG2 cells assessed as increased expression of Bax protein at 1 to 10 uM after 12 hrs by immunoblot; type: functional, cell-based
[39] = tested on: A549; assay: Growth inhibition of human A549 cells after 72 hrs by XTT assay; type: functional; conditions: A549, 72 h
[40] = Cell cycle arrest in human Hep3B cells assessed as accumulation at S phase at 10 uM after 12 hrs using propidium iodide staining by flow cytometry (reference value: 12.2%); type: functional, cell-based; conditions: Hep 3B2
[41] = tested on: HepG2; assay: Cell cycle arrest in human HepG2 cells assessed as accumulation at G1 phase at 5 uM after 12 hrs using propidium iodide staining by flow cytometry (reference value: 67.5%); type: functional
[42] = tested on: HepG2; assay: Cell cycle arrest in human HepG2 cells assessed as accumulation at sub-G1 phase at 10 uM after 12 hrs using propidium iodide staining by flow cytometry (reference value: 3.6%); type: functional

`CN(C)CCCO/N=C1\c2cc(O)ccc2-c2c(-c3ccc(OCCCN(C)C)cc3)nc3ccc(F)cc3c21` showed an Activity [1] of 31.1%, an Activity [2] of 10.4% and an Activity [3] of 18.5%. The Activity [4] was 21.7%, the Activity [5] was 17.9% and the Activity [6] was “Active”. The Activity [7] was 21.8%, the Activity [8] was 58.9% and the Activity [9] was “Active”. For the same compound, the Activity [10] was 12.4%, the Activity [11] was “Active” and the Activity [12] was 19.8%. For the same compound, the Activity [13] was 42.7%, the “growth inhibition (GI)” value [14] was “tde” and the Activity [15] was 17.4%. For the same compound, the GI50 [16] was 640 nM, the Activity [17] was 31.3% and the Activity [18] was 23.6%. The Activity [19] was 56.5%, the Activity [20] was 33.5% and the Activity [21] was 5.3%. The “growth inhibition (GI)” value [22] was “Active”, the Activity [23] was 14.1% and the GI50 [24] was 6460 nM. The Activity [25] was “Active”, the “growth inhibition (GI)” value [26] was “Active” and the Activity [27] was 4.9%. For the same compound, the “growth inhibition (GI)” value [28] was “Dose-dependent effect”, the “growth inhibition (GI)” value [29] was “tde” and the Activity [30] was 37.2%. It also gave an Activity [31] of 18.1%, a GI50 [32] of 670 nM and a GI50 [33] of 650 nM. The Activity [34] was “Active”, the “growth inhibition (GI)” value [35] was “Dose-dependent effect” and the GI50 [36] was 390 nM. The Activity [37] was 30.7%, the Activity [38] was “Active” and the GI50 [39] was 550 nM. For the same compound, the Activity [40] was 15.2%, the Activity [41] was 38.1% and the Activity [42] was 29.1%.
